{"source": "patent EP3636255A1", "about": "(priority 2018, dated 2020)", "key": {"yeast cells": {"system": "yeast cells", "test": "Yeast growth assay (ten-fold serial dilution spotting) of WT yeast with empty vector or expressing mammalian ceramide synthases", "conditions": "48 h at 30°C"}, "[1]": {"system": "CerS3 cells lacking the indicated genes", "test": "Yeast growth assay of CerS3 cells lacking genes identified as hypersensitive by SATAY", "conditions": "2.5 µM; 48 h at 30°C"}, "[2]": {"system": "Vesicular Stomatitis Virus (VSV)", "format": "cell-based"}, "anthrax toxin": {"system": "anthrax toxin", "format": "cell-based, human", "conditions": "RPE1 cells, 1 µM overnight"}}, "note": "Read-outs that look alike come from different tables or passages of the source."}
{"smiles": "CCCCCCCCCCCCCCCC(O)C(C)N", "note": "(centres unmarked) [Formula 1, 2-aminooctadecan-3-ol]", "values": [{"measurement": "sensitivity (colony size and density)", "setting": "yeast cells; WT+CerS1, 5 to 20 µM", "value": "insensitive"}, {"measurement": "sensitivity (colony size and density)", "setting": "yeast cells; WT+CerS2, 5 to 20 µM", "value": "insensitive"}, {"measurement": "sensitivity (colony size and density)", "setting": "yeast cells; WT+CerS3, already at 5 µM", "value": "highly sensitive"}, {"measurement": "sensitivity (colony size and density)", "setting": "yeast cells; WT+CerS4, 5 to 20 µM", "value": "insensitive"}, {"measurement": "sensitivity (colony size and density)", "setting": "yeast cells; WT+CerS5, 10 µM", "value": "mildly sensitive"}, {"measurement": "sensitivity (colony size and density)", "setting": "yeast cells; WT+CerS5, 20 µM", "value": "highly sensitive"}, {"measurement": "sensitivity (colony size and density)", "setting": "yeast cells; WT+CerS6, 10 µM", "value": "mildly sensitive"}, {"measurement": "sensitivity (colony size and density)", "setting": "yeast cells; WT+CerS6, 20 µM", "value": "highly sensitive"}, {"measurement": "sensitivity (colony size and density)", "setting": "yeast cells; WT+EV (empty vector), 5 to 20 µM", "value": "insensitive"}, {"measurement": "cellular toxicity", "setting": "RPE1 cells", "value": "not toxic"}, {"measurement": "sensitivity of the mutants (colony size and density)", "setting": "[1]", "value": "slightly more sensitive"}, {"measurement": "toxicity (cell count by DAPI-based nuclei count)", "setting": "HeLaMZ cells", "value": "not toxic"}, {"measurement": "toxicity (cell number by DAPI nuclei count)", "setting": "HeLaMZ cells; at 1µM", "value": "starts to show some toxicity"}, {"measurement": "inhibition of viral infection, concentration dependence", "setting": "[2]", "value": "Concentration dependent inhibition"}, {"measurement": "viral infection (GFP-positive cells)", "setting": "[2]", "value": "reduced viral infection"}, {"measurement": "reduction of viral infectivity", "setting": "[2]; 1 µM", "value": "substantial"}, {"measurement": "LF activity", "setting": "anthrax toxin; 500 ng/ml PA83 and 50 ng/ml LF", "value": "prevented"}, {"measurement": "PA processing (PA83 to PA63, heptamer formation)", "setting": "anthrax toxin; 500 ng/ml PA83 and 50 ng/ml LF", "value": "unaffected"}, {"measurement": "MEK1(N) cleavage", "setting": "anthrax toxin; control cleaved within 90 to 120 min", "value": "stabilized"}]}
{"smiles": "C#CCCCCCCCCCCCCCC(O)C(C)N", "note": "(centres unmarked) [Formula 2, 2-aminooctadec-17-yn-3-ol]", "values": [{"measurement": "toxicity (cell number by DAPI nuclei count)", "setting": "HeLaMZ cells; 0.2-2 µM", "value": "very little toxicity"}]}
